The nature of this data set: gradient 5% acetonitrile 3 min, to 50% in 2 min, to 85% in 15 min, held 3 min, 100 µL/min. To be noted: column: Zorbax Extend-C18 2.1 x 50 mm; eluents: water / acetonitrile, 0.1% formic acid. An outline of the steps: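 Retention times come from adduct peaks that were picked computationally and then checked by hand. The standards, pure and pooled in mixtures of ~100 molecules, were run on a Zorbax Extend-C18 column (2.1 × 50 mm, 1.8 μm) at 100 μL/min with water and acetonitrile, each with 0.1% formic acid. Detection was by quadrupole time-of-flight mass spectrometry in positive and negative ionization mode, with a dead volume of 40 μL and a dwell volume of 900 μL.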
The compound `CCCC(=O)Nc1nc(-c2ccccc2)c(-c2ccccc2)s1` came in with an RP-LC retention time of 1160 s.
In the case of `CC(C)(C)c1ccc2c(c1)OCC(=O)N2Cc1nc(-c2ccc3c(c2)OCO3)no1` it was 1200 s; in that of `Cc1cc(C)c2[nH]c3c(c(=O)c2c1)CN(CC(=O)Nc1cc(F)cc(F)c1)CC3`, 673 s.
In the case of `CC1(C)CC(=O)c2cc3c(N)c(C(=O)Nc4ccccc4[N+](=O)[O-])sc3nc2C1` it was 1100 s; in that of `O=C(c1ccc2cc[nH]c2c1)N1C[C@@H]2C[C@H]1C[C@@H]2NS(=O)(=O)c1ccccc1`, 766 s; in that of `O=C(Nc1nc(-c2cc(Cl)sc2Cl)cs1)c1ccc([N+](=O)[O-])s1`, 1310 s.
In the case of `COc1ccc(-c2nc(Nc3nc(C)cc(C)n3)sc2CCC(=O)O)cc1` it was 702 s; in that of `Cc1cc(C)c(S(=O)(=O)N2CCc3c(c(CN4CCCC4)nn3C)C2)c(C)c1`, 686 s.
`CN(CCc1noc(-c2ccc(Cl)cc2)n1)C(=O)NCc1ccco1` registered an RP-LC retention time of 868 s.
In the case of `CCN1c2ccccc2C(=O)NC12CCN(C(=O)c1ccc(F)cc1)CC2` it was 756 s; in that of `Cc1ccnc(NC(=O)C2CC(=O)N(c3n[nH]c4ccccc34)C2)c1` (stereo not given), 592 s; in that of `NC(=O)N/N=C1\CC2CC1C1C=CCC21` (stereo not given), 768 s.
`Cc1ccc(Cn2c(CN3CCC(C(=O)N4CCCC4)CC3)cc3ccccc32)cc1` registered an RP-LC retention time of 750 s.
The compound `CCOc1ccc(/C=C/C(=O)Nc2nc(-c3ccccc3)cs2)cc1` displayed an RP-LC retention time of 1140 s.
In the case of `Cc1ccc(NC(=O)CSc2nccc(N3CCN(c4cc(C)ccc4C)CC3)n2)c(C)c1` it was 1060 s.
In the case of `O=C(Nc1ccccc1Cl)N(Cc1ccsc1)Cc1ccccn1` it was 806 s.
Compound `Cc1c(-c2noc(-c3ccc4c(c3)OCO4)n2)nnn1-c1ccc(F)cc1` gave an RP-LC retention time of 745 s.
Compound `CCOc1cccc(CNC(=O)c2cn3c(n2)CCCC3)c1` came in with an RP-LC retention time of 602 s.
In the case of `Cc1ccc(S(=O)(=O)N2CC=C(N)N2)cc1` it was 684 s; in that of `Cc1oc(-c2[nH]ncc2C(=O)N2CCCC2)cc1S(=O)(=O)Nc1ccc(F)cc1`, 705 s.
With `Cc1cc(N2CCN(C)CC2)n2nc(-c3ccc(C(C)(C)C)cc3)nc2n1`, the RP-LC retention time amounted to 656 s.
Take `O=S(=O)(Cc1c(F)cccc1Cl)N1CCC(CN2CCCCCC2)CC1`: the RP-LC retention time stood at 695 s.
In the case of `COc1ccc(Nc2c(-c3ccc(SC)cc3)nc3ncccn23)cc1OC` it was 702 s; in that of `Cc1ccnc(OCC(=O)NCCNc2cc(-n3nc(C)cc3C)nc(C)n2)n1`, 596 s.
In the case of `COc1ccc2c(c1)CC(C(=O)N1CCN(C(=O)c3ccco3)CC1)CO2` (stereo not given) it was 725 s; in that of `COC(=O)c1ccc(C(=O)OC)c(NC(=O)c2cnc3n(c2=O)CCS3)c1`, 700 s.
In the case of `Cc1cnc(C2CN(Cc3cccc(F)c3)C2)n1CC1CC1` it was 554 s.
The compound `COc1ccc(CN2C=C(C(=O)OCc3noc(-c4ccccc4C)n3)C(C)=NS2(=O)=O)cc1` had an RP-LC retention time of 861 s.
In the case of `Cc1c(F)cccc1NC(=O)N(C)CC1CCOCC1` it was 742 s; in that of `CCCS(=O)(=O)N1CCC(Cc2nncn2-c2ccccc2)CC1`, 713 s; in that of `COc1ccc(OC)c(S(=O)(=O)N2CCCN(C)c3ccccc32)c1`, 860 s.
In the case of `CC1CCCCN1S(=O)(=O)c1ccc(Cl)c(C(F)(F)F)c1` (stereo not given) it was 1120 s.
In the case of `CCOC(=O)c1noc2nc(C)nc(N3CCN(c4ccc(F)cc4)CC3)c12` it was 1070 s; in that of `CCNc1cc(N2CCCC(CCC(=O)Nc3ccc(OCC)cc3)C2)ncn1` (stereo not given), 699 s.
In turn, `Cc1cc(C)cc(S(=O)(=O)N2CCc3c(c(-c4nnc(-c5ccccc5)o4)nn3C)C2)c1` yielded an RP-LC retention time of 1020 s.
`NCC(=O)c1cccc2ccc[n+]([O-])c12` came in with an RP-LC retention time of 678 s.
In the case of `Cc1cccc(NC(=O)C2CCCN2S(=O)(=O)c2ccc3c(c2)NC(=O)CO3)c1C` (stereo not given) it was 805 s; in that of `CCc1noc(NC(C)=O)c1-c1ccc(OC)c(S(=O)(=O)Nc2ccc(C#N)cc2)c1`, 735 s; in that of `Cc1c(Cl)cccc1N1CCn2c1nc1c2c(=O)n(CC(=O)O)c(=O)n1C`, 719 s.
Regarding `COc1ccc(-c2nnc(-c3cccc(S(=O)(=O)N4CCCC4)c3)o2)cc1OC`, the RP-LC retention time was 885 s.
`Cc1c(-c2cccc(NS(=O)(=O)c3ccc(Cl)cc3)c2)nc2ncccn12` yielded an RP-LC retention time of 627 s.
In the case of `CCN1C(=O)C2(CCN(C(=O)NC(C)C)CC2)c2ccccc21` it was 740 s; in that of `CC(C)Cc1nc(-c2ccccc2)oc1CC(=O)Nc1ccc(F)cc1Cl`, 1180 s; in that of `COc1ccccc1NC(=O)N1CCCC1c1cc(C)on1` (stereo not given), 800 s.
On to `CCC(C)Nc1nc(-c2ccc(OC)cc2)nc2ccccc12` (stereo not given), for which the RP-LC retention time was found to be 800 s.
In the case of `O=C(NCc1ccc(F)cc1)N1CCC(OC2CCN(Cc3ccccc3)CC2)CC1` it was 658 s; in that of `O=C(C1=CN(c2ccc(C(F)(F)F)cc2)c2cc(F)ccc2S1(=O)=O)N1CCOCC1`, 875 s; in that of `Cc1csc(NC(=O)C2CC(=O)N(c3n[nH]c4cccc(F)c34)C2)n1` (stereo not given), 664 s.
In the case of `O=C(NCCC1CCN(C(=O)Nc2ccc(F)cc2F)CC1)c1ccco1` it was 700 s.
`c1ccc(-n2ncc3c(Nc4ccc5c(c4)OCO5)nc(N4CCOCC4)nc32)cc1` had an RP-LC retention time of 1100 s.
In the case of `O=C(c1cc(F)ccc1Cl)N1CCc2nc(-c3ccc(Cl)cc3)ncc2C1` it was 1130 s; in that of `O=C(Nc1cccc(OCc2nnc(-c3ccccc3)o2)c1)c1cnccn1`, 825 s.
In the case of `COCc1nc(N(C)Cc2ccccc2)ncc1C(=O)O` it was 804 s; in that of `CCc1ccc(-c2csc(NC(=O)c3cccnc3)n2)cc1`, 924 s; in that of `O=C(O)c1cn(CCOc2ccccc2)c2ccccc12`, 885 s.
In the case of `CCOC(=O)N1CCN(C(=O)C2CN(C(=O)c3c[nH]c4ccccc34)C2)CC1` it was 633 s; in that of `Cc1ccc(-n2c(N3CCC(C(=O)NC4CC4)CC3)nc3ccsc3c2=O)cc1`, 719 s; in that of `O=C(COc1ccccc1)N1CCCCC1c1nncn1CC1CC1` (stereo not given), 731 s.
In the case of `Cc1cc(C)cc(N2CCC(NC(=O)c3ccsc3)C2=O)c1` (stereo not given), the RP-LC retention time is 815 s.
The compound `CCCCC(=O)Nc1ccc2nc(N3CCN(c4ccccc4Cl)CC3)cc(C(=O)O)c2c1` had an RP-LC retention time of 1010 s.

Source of the values: the METLIN SMRT retention time set (Domingo-Almenara et al. 2019).
